Source: patent US7429564B2, “Oral insulin therapy” (Emisphere Technologies, Inc., priority 2002, dated 2008)
Read-outs that look alike come from different tables or passages of the source. Marks after values point to notes of the source that are not given here.

Experiment: Example 5: 4-CNAB plasma pharmacokinetics, single oral doses, healthy male volunteers
Format: in vivo, human
Details: for MRT inf: read-out: 4-CNAB MRT(0-inf); for Vd/F: read-out: 4-CNAB Vd/F
Method: A single center, double-blind, randomized placebo-controlled study undertaken in healthy human subjects in order to assess the safety and tolerability of escalating single oral doses of 4-CNAB capsules and insulin/4-CNAB capsules.
Within each treatment period in each group, eight subjects were planned to receive active treatment and two subjects to receive placebo. In Group 1, there were four escalating single doses of 4-CNAB (400, 800, 1400 and 2000 mg) and each subject received either all four of these escalating doses or three escalating single doses and one dose of placebo. […] In Group 3 there were three escalating oral doses of Insulin/4-CNAB (100 Units/300 mg, 100 Units/450 mg and 150 Units/100 mg) and one SC dose of 150 Units of insulin. Each subject received either all four of these treatments or three of these treatments and one placebo treatment. For all groups, there was a washout period of at least 72 hours between treatment periods.
The concentration of 4-CNAB in plasma was determined using a combination of liquid chromatography and Mass spectrometry assay known as LC-MS/MS. The method involves protein precipitation followed by separation on liquid chromatography using a Hypersil BDS column and a mobile phase consisting of methanol and acetate buffer. The eluting peaks were quantified by MS/MS. The equipment used for the determination of 4-CNAB in plasma comprises of an Agilent 1100 modular HPLC system with a Micromass Quattro Micro MS/MS detector. HPLC and AR grade chemicals and reagents were used throughout the study.
On the basis of plasma concentrations of 4-CNAB and insulin, PK analysis was performed using non-compartmental PK methods as implemented in WinNonlin™ Professional version 3.2. The profiles for insulin and C-peptide corrected insulin were evaluated up to 6 hours as food was given 6 hours following insulin treatment. The following parameters were derived for 4-CNAB: Cmax, tmax, AUC(0-t), AUC(0-inf), AUC% Extrap, Kel, t1/2, CL/F, Vd/F, MRT(0-t), MRT(0-inf) and Frel. The following parameters were derived for insulin and C-peptide corrected insulin: Cmax, tmax, AUC(0-2), AUC(0-6), AUC(0-t) and concentrations (C^b) and corresponding time (t^b) immediately prior to intervention for hypoglycemia.

[1] = male, human, plasma, oral, 400 mg, Group/Treatment 1/1, 4-CNAB dose 400, alone, unaudited data
[2] = male, human, plasma, oral, 800 mg, Group/Treatment 1/2, 4-CNAB dose 800, alone, unaudited data
[3] = male, human, plasma, oral, 1400 mg, Group/Treatment 1/3, 4-CNAB dose 1400, alone, unaudited data
[4] = male, human, plasma, oral, 2000 mg, Group/Treatment 1/4, 4-CNAB dose 2000, alone, unaudited data
[5] = male, human, plasma, oral, Group/Treatment 2/2, 4-CNAB dose 200, with insulin, unaudited data
[6] = male, human, plasma, oral, Group/Treatment 2/3, 4-CNAB dose 600, with insulin, unaudited data
[7] = male, human, plasma, oral, Group/Treatment 3/1, 4-CNAB dose 300, with insulin, unaudited data
[8] = male, human, plasma, oral, Group/Treatment 3/2, 4-CNAB dose 450, with insulin, unaudited data
[9] = male, human, plasma, oral, Group/Treatment 3/3, 4-CNAB dose 100, with insulin, unaudited data
[10] = male, human, plasma, po, 400 mg, 4-CNAB alone 400 mg oral
[11] = male, human, plasma, po, 800 mg, 4-CNAB alone 800 mg oral
[12] = male, human, plasma, po, 1400 mg, 4-CNAB alone 1400 mg oral

SMILES: O=C(O)CCCNC(=O)c1ccc(Cl)cc1O [4-CNAB, 4-[(4-chloro, 2-hydroxybenzoyl)amino]butanoic acid]
- 4-CNAB Cl/F (4-CNAB alone 400 mg oral): 294 ± 122 mL/min
- 4-CNAB Kel (4-CNAB alone 400 mg oral): 0.11 ± 0.78 h⁻¹
- 4-CNAB Cl/F (4-CNAB alone 800 mg oral): 290 ± 88^b mL/min
- 4-CNAB Kel (4-CNAB alone 800 mg oral): 0.12 ± 0.04 h⁻¹
- 4-CNAB Cl/F (4-CNAB alone 1400 mg oral): 160 ± 38 mL/min
- 4-CNAB Kel (4-CNAB alone 1400 mg oral): 0.18 ± 0.14 h⁻¹
- 4-CNAB Cl/F (4-CNAB alone 2000 mg oral): 178 ± 32^a mL/min
- 4-CNAB Kel (4-CNAB alone 2000 mg oral): 0.06 ± 0.03 h⁻¹
- 4-CNAB median time of maximum concentration (4-CNAB alone and combined Insulin/4-CNAB treatment): around 0.6 hours
- AUC [1]: 22400 ng·h/mL
- Cmax [1]: 22300 ng/mL
- Tmax (male, human, plasma, oral, 400 mg, Group/Treatment 1/1, 4-CNAB dose 400, alone, unaudited data, read-out: 4-CNAB tmax (range)): 30 min
- AUC [2]: 42700 ng·h/mL
- Cmax [2]: 32700 ng/mL
- Tmax (male, human, plasma, oral, 800 mg, Group/Treatment 1/2, 4-CNAB dose 800, alone, unaudited data, read-out: 4-CNAB tmax (range)): 30 min
- AUC [3]: 144000 ng·h/mL
- Cmax [3]: 97500 ng/mL
- Tmax (male, human, plasma, oral, 1400 mg, Group/Treatment 1/3, 4-CNAB dose 1400, alone, unaudited data, read-out: 4-CNAB tmax (range)): 30 min
- AUC [4]: 213000 ng·h/mL
- Cmax [4]: 122000 ng/mL
- Tmax (male, human, plasma, oral, 2000 mg, Group/Treatment 1/4, 4-CNAB dose 2000, alone, unaudited data, read-out: 4-CNAB tmax (range)): 45 min
- half-life (male, human, plasma, oral, 4-CNAB alone, read-out: 4-CNAB mean elimination half-life, range across doses): 354 to 918 min
- AUC [5]: 10000 ng·h/mL
- Cmax [5]: 9160 ng/mL
- Tmax (male, human, plasma, oral, Group/Treatment 2/2, 4-CNAB dose 200, with insulin, unaudited data, read-out: 4-CNAB tmax (range)): 30 min
- AUC [6]: 36700 ng·h/mL
- Cmax [6]: 33200 ng/mL
- Tmax (male, human, plasma, oral, Group/Treatment 2/3, 4-CNAB dose 600, with insulin, unaudited data, read-out: 4-CNAB tmax (range)): 30 min
- AUC [7]: 8740 ng·h/mL
- Cmax [7]: 8660 ng/mL
- Tmax (male, human, plasma, oral, Group/Treatment 3/1, 4-CNAB dose 300, with insulin, unaudited data, read-out: 4-CNAB tmax (range)): 30 min
- AUC [8]: 25900 ng·h/mL
- Cmax [8]: 20100 ng/mL
- Tmax (male, human, plasma, oral, Group/Treatment 3/2, 4-CNAB dose 450, with insulin, unaudited data, read-out: 4-CNAB tmax (range)): 30 min
- AUC [9]: 4710 ng·h/mL
- Cmax [9]: 5170 ng/mL
- Tmax (male, human, plasma, oral, Group/Treatment 3/3, 4-CNAB dose 100, with insulin, unaudited data, read-out: 4-CNAB tmax (range)): 15 min
- MRT (male, human, plasma, oral, across treatments, read-out: 4-CNAB MRT, range): 84 to 108 min
- half-life (male, human, plasma, oral, combination capsules with insulin, across dose groups, read-out: 4-CNAB mean elimination half-life): 192 to 318 min
- AUC(0-inf) [10]: 26700 ± 12200 ng·h/mL
- AUC(0-t) [10]: 22200 ± 6760 ng·h/mL
- Cmax [10]: 22300 ± 11500 ng/mL
- MRT inf [10]: 438 ± 693 min
- Vd/F [10]: 220 ± 130 L
- half-life (male, human, plasma, po, 400 mg, 4-CNAB alone 400 mg oral, read-out: 4-CNAB t1/2 (converted)): 720 ± 804 min
- Tmax (male, human, plasma, po, 400 mg, 4-CNAB alone 400 mg oral, read-out: 4-CNAB tmax, median (range)): 30 min
- AUC(0-inf) [11]: 49400 ± 15100 ng·h/mL
- AUC(0-t) [11]: 44300 ± 14500 ng·h/mL
- Cmax [11]: 38000 ± 15800 ng/mL
- MRT inf [11]: 156 ± 31.8 min
- Vd/F [11]: 156 ± 82 L
- half-life (male, human, plasma, po, 800 mg, 4-CNAB alone 800 mg oral, read-out: 4-CNAB t1/2 (converted)): 354 ± 93 min
- Tmax (male, human, plasma, po, 800 mg, 4-CNAB alone 800 mg oral, read-out: 4-CNAB tmax, median (range)): 30 min
- AUC(0-inf) [12]: 154000 ± 38100 ng·h/mL
- AUC(0-t) [12]: 144000 ± 33800 ng·h/mL
- Cmax [12]: 103000 ± 14600 ng/mL
- MRT inf [12]: 184 ± 103 min
- Vd/F [12]: 81 ± 50 L
- half-life (male, human, plasma, po, 1400 mg, 4-CNAB alone 1400 mg oral, read-out: 4-CNAB t1/2 (converted)): 378 ± 246 min
- Tmax (male, human, plasma, po, 1400 mg, 4-CNAB alone 1400 mg oral, read-out: 4-CNAB tmax, median (range)): 45 min
